SMILES strings stand for the structures. Calls of active or inactive are those of the source. The calls are words filed in the database; no cut-off is given here.

The source of these data is ChEMBL document CHEMBL2163339, “Discovery of potent inhibitors of human and mouse fatty acid amide hydrolases” (J Med Chem, 2012).

For the first assay, the target named is T1, Fatty-acid amide hydrolase 1 (Mus musculus, UniProt O08914).
T1 sequence (O08914 whole entry): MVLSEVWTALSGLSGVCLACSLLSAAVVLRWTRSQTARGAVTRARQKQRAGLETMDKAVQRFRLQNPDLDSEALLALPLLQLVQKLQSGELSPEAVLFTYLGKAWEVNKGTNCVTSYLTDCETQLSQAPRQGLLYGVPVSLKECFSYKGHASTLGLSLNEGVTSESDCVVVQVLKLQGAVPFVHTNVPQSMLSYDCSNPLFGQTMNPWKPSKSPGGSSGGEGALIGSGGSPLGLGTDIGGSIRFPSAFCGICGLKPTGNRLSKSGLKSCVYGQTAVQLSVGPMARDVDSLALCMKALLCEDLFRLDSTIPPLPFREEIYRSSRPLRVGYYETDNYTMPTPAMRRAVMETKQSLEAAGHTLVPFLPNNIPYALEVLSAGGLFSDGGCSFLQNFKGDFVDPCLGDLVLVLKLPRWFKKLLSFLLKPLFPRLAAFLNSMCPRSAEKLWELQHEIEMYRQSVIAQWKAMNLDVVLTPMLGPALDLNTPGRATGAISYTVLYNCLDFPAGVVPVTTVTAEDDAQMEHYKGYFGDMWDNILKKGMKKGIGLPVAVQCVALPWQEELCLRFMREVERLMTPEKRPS
Nature of the assay: Inhibition of mouse FAAH isolated from brain homogenate using [3H-ethanolamine]AEA as substrate incubated for 20 mins prior to substrate addition measured after 15 mins by beta counting analysis.
As a reminder, the IC50 is the concentration that gives 50% inhibition. The low end stands for greater potency in that assay, the high end for weaker potency in that assay. A word on the Ki: it is the dissociation constant of the complex between target and ligand, obtained from inhibition or displacement. A higher Ki goes with lower affinity. Take `NC(=O)c1ccn(-c2cccc(OC(=O)NCCOCCOc3c(F)cc(F)cc3F)c2)c1`: it took 43 nM to reach half-maximal inhibition (IC50) and the affinity corresponds to a Ki of 11 nM.

`Cc1oc(-c2cccc(OC(=O)NC3CCCCC3)c2)cc1C(N)=O` registered an IC50 of more than 200 nM. On the same count and under the same terms, then `Cc1cc(C(=O)NCCCCCCc2ccccc2)c(-c2cccc(OC(=O)NC3CCCCC3)c2)n1Cc1ccccc1`, with more than 200 nM. With `NC(=O)c1ccn(-c2cccc(OC(=O)NCCOCCOc3ccc(F)cc3)c2)c1`, it took 31 nM to reach half-maximal inhibition (IC50) and the affinity corresponds to a Ki of 8 nM. The like results for `NC(=O)c1ccn(-c2cccc(OC(=O)NCCOCCOc3ccccc3)c2)c1` were, in that order, 87 nM and 23 nM.

On to `Cc1cc(C(N)=O)c(-c2cccc(OC(=O)NC3CCCCC3)c2)s1`, for which the concentration for half-maximal inhibition (IC50) was more than 200 nM. Same read-out and setting: then `Cc1cc(C(N)=O)c(-c2cccc(OC(=O)NC3CCCCC3)c2)o1`, with more than 70 nM.

For another assay, the target named is T2, Fatty-acid amide hydrolase 1 (Mus musculus) (UniProt O08914).
T2 sequence (whole entry): T1 sequence (O08914 whole entry)
Nature of the assay: Reversible inhibition of mouse FAAH isolated from brain homogenate using [3H-ethanolamine]AEA as substrate incubated for 20 mins prior to substrate addition measured after 18 hrs by […] method.
`NC(=O)c1ccn(-c2cccc(OC(=O)NCCOCCOc3ccc(F)cc3)c2)c1`: the inhibition entry was “Active”.
